The values that follow come from US20140080214A1, “CLEAVABLE CELLULOSIC SPONGE DEVELOPMENT FOR 3 DIMENSIONAL CELL CULTURE AND SPHEROIDS RETRIEVAL” (Agency for Science, Technology and Research, priority 2012, published 2014).

SMILES strings stand for the structures. Entries after “also recorded” stand apart in the source; their conditions may differ. Some results are limits rather than exact numbers.

Data set [1] can be described thus: Sponge cleavage condition optimization (visual monitoring of sponge incubated with reductant). As to conditions: 37° C.; for Remarks: sponge cleavage: 1 mM reductant in William's E medium.
Protocol: For easy visualization during cleavage, HPCSS Gal sponges were pre-soaked in 0.25 mg/mL propidium iodide overnight (Molecular Probes, USA). The stained sponges were incubated with 3 mL each of TCEP and DTT (as known strong reductant) per sponge at various concentrations (25, 10, 5, 3 and 1 mM) in 37° C., 5% CO2 and 95% incubator. The morphological changes of the sponge were monitored visually every 15 minutes.
For data set [2] the following is noted: reduction of disulfide bonds; cited from earlier work.
In a further data set the test system is cells. The note with it: 10 mg/mL, 24 hours of exposure; cited from earlier work.
A short description of data set [3]: Dynamic of sponge cleavage with time lapse imaging. The note with it: 10 mM TCEP, 37° C., confocal time lapse. As to the method:
The propidium iodide-prestained HPCSS Gal sponges were incubated with 10 mM TCEP and its macroporosity changes were monitored by Olympus fluoview FV1000 equipped with 37° C. heated chamber with a 60× water lens for 30 minutes with 2 minutes time interval. Images were analysed using IMARIS and images assembled using Adobe illustrator CS3.

The subject of data set [4] is F-actin, E-cadherin and MRP2. Briefly: Immunofluorescence staining of polarity markers and cell-cell junction of retrieved hepatocyte spheroids. Format: cell-based, rat. As to conditions: 10 mM TCEP to cleave the sponge. As to the method:
To stain F-actin, E-cadherin and MRP2, hepatocytes spheroids cultured for 72 hours post-seeding in the sponges and retrieved from HPCSS Gal sponges were fixed in 3.7% paraformaldehyde for 10 minutes. For staining F-actin, the cells were permeabilized for 5 minutes in 0.1% Triton X-100 and incubated with 1 μg/mL TRITC-phalloidin (Molecular Probes, USA) for 20 minutes. For E-cadherin and MRP2 staining, following washing and blocking with 2% BSA/0.2% Triton-X 100 the spheroids were incubated overnight at 4° C. with primary antibodies: anti-rat E-cadherin (BD, USA) and rabbit anti-rat MRP2 (Sigma Aldrich, Singapore), respectively. Secondary antibodies used were goat anti-mouse and goat anti-rabbit 488 and 555 (Molecular Probes, USA), respectively. Nuclei stain was captured using DAPI stain (Vecta Shield, UK). Images were captured using Olympus fluoview FV1000 with a 60× water lens. Images were analysed using IMARIS and assembled using Adobe illustrator CS3.

Another data set deals with primary rat hepatocyte. Nature of the data set: TCEP toxicity study in primary rat hepatocyte (MTT). It counts as cell-based. The note with it: for primary rat hepatocyte viability: MTT, ratio to untreated. As to the method: Primary rat hepatocyte was seeded on collagen coated well in 24-well plate format (0.3×10^6 cell per well). The culture was maintained for 3 days and the medium was replenished every day. On the 3rd day, the cells were incubated with TCEP solution in Williams' E medium at pre-determined concentrations and time; 5 mM for 1.5 hour, 10 and 25 mM for 30 minutes each. The duration of the incubation was chosen based on the ability of the associated TCEP concentrations to completely cleave HPCSS Gal sponge. Upon incubation, the morphology of the cells was monitored and followed with further incubation of 1 mg/mL (3-(4,5-dimethylthiazol-2-yl)-2,5-diphenyltetrazolium bromide (MTT) solution for 3 hours. The formed formazan product in each well was dissolved with 300 μL of 0.04 M HCl in isopropanol and its optical density was measured by TECAM Infinite M1000 microplate reader at 570 nm. Cell viability was determined by calculating the ratio of treated sample absorbance against untreated sample absorbance.

Data set [5] concerns CYP1A2, CYP2B2 and CYP3A2. Briefly: RT-PCR gene expression of cytochrome P450 genes in hepatocyte spheroids. Format: cell-based. As to conditions: 10 mM TCEP, 30 minutes, rat hepatocyte spheroids. The method, then:
Rat hepatocyte, E1 and mESCs spheroids were retrieved from the sponge by incubating cell seeded-cleavable sponge with 3 mL of 10 mM TCEP in respective cell culture mediums in each well of 12-well plate for 30 minutes at 37° C. (incubator set up 5% CO2 and 95% humidity). The cleaved sponge solution from each well was mixed thoroughly by 3 mL plastic dropper and then transferred into 15 mL falcon tube. This solution was further diluted with 3 mL pre-warmed DPBS and centrifuged at 100×g for 10 minutes. This washing step was repeated three times to remove TCEP solution completely. Eventually, the retrieved hepatocyte spheroids were resuspended in fresh mediums and replated on collagen coated dish or poly-L-lysine coated dish for further assays or spheroids manipulation.
RNA was extracted from hepatocytes cultured as 3D spheroids in HPCSS Gal sponges by RLT lysis buffer (Qiagen, Singapore). Total RNA concentration was quantified by a Nanodrop (Thermoscientific) and 1 μg of RNA was converted to cDNA by High Capacity RNA-to-cDNA (Applied Biosystems). Primers were designed using Primer 3 and real-time PCR was performed by using SYBR green fast master mix on a ABI 7500 Fast Real-Time PCR system (Applied Biosystems). Gene expression was calculated using the ΔΔCT method normalized to GAPDH. The primers used in experiment are shown below.

[6] abbreviates: 3 mM reductant in William's E medium.
[7] abbreviates: 5 mM reductant in William's E medium.
Where [8] appears, read: 25 mM reductant in William's E medium.

Turning to `O=C(O)CCP(CCC(=O)O)CCC(=O)O` [TCEP, tris(2-carboxyethyl)phosphine], in data set [1], the “Remarks: sponge cleavage” value is recorded as “Sponge not”. Besides, the “Remarks: time within which sponge cleaved” value in data set [1] (setting [6]) is reported as “within 2 hours”; in data set [1] (setting [7]) it was “within 1.5 hour”; in data set [1] (setting [8]), “within 30 minutes”. In addition, in data set [2], the “pH range at which the reductant is effective” value is 1.5-8.5. Further, the remaining viable cells with cells is 60%. Moreover, the “time at which sponge macroporous networks had shrunken significantly” value in data set [3] was 6 min. For the same compound, the “effect of TCEP incubation on polarity markers and cell-cell junction” value in data set [4] is listed as “does not show harmful effect”. In addition, the “primary rat hepatocyte viability” value with primary rat hepatocyte (5 mM, 1.5 hour) is 79.75±10.71%; in the data set with primary rat hepatocyte (10 mM, 30 minutes), 87.42±8.03%; in the data set with primary rat hepatocyte (25 mM, 30 minutes), 93.06±6.96%. In the data set on primary rat hepatocyte (hepatocytes with and without TCEP incubation), the “cell damage in phase contrast images” value is recorded as “No significant cell damage”. Moreover, in the data set on primary rat hepatocyte (rat hepatocyte, all TCEP configurations tested), the “maintenance of cell viability (FIG. 10 legend)” value is greater than 80%. In addition, the “effect of TCEP incubation on CYP genes” value in data set [5] was “did not show any significant detrimental effect; also recorded: no significant effect”.

`O[C@H](CS)[C@H](O)CS` (racemic) [DTT, dithiothreitol]: the “Remarks: sponge cleavage” value in data set [1] is listed as “Sponge not”. The “Remarks: time within which sponge cleaved” value in data set [1] (setting [6]) is given as “within 2 hours”; in data set [1] (setting [7]) it was “within 1.5 hour”; in data set [1] (10 mM reductant in William's E medium), “within 30 minutes”; in data set [1] (setting [8]), “within 30 minutes”. Besides, the “pH range at which the reductant is effective” value in data set [2] was 7-8.1.
